Test results taken from PubChem BioAssay (NCI).
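Exposure lasted 48 hours, with cells grown in 96-well plates and compounds tested at five concentrations. Abbreviation: GI50, concentration required for 50% inhibition of growth. At the TGI there is no net growth.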

Key:
Test in all cases: NCI-60 cell line screen, 48 h
[1] = tested on: MOLT-4 leukemia
[2] = tested on: K-562 leukemia
[3] = tested on: U251 CNS
[4] = tested on: HCT-116 colon
[5] = tested on: SK-MEL-28 melanoma
[6] = tested on: PC-3 prostate
[7] = tested on: DU-145 prostate
[8] = tested on: OVCAR-3 ovarian
[9] = tested on: SK-MEL-5 melanoma
[10] = tested on: LOX IMVI melanoma
[11] = tested on: UACC-62 melanoma
[12] = tested on: HCT-15 colon
[13] = tested on: HCC-2998 colon
[14] = tested on: SF-268 CNS
[15] = tested on: COLO 205 colon
[16] = tested on: SF-539 CNS
[17] = tested on: A549 NSCLC
[18] = tested on: SF-295 CNS
[19] = tested on: CAKI-1 renal
[20] = tested on: T-47D breast
[21] = tested on: UO-31 renal
[22] = tested on: KM12 colon
[23] = tested on: UACC-257 melanoma
[24] = tested on: NCI-H23 lung
[25] = tested on: ACHN renal
[26] = tested on: SW-620 colon
[27] = tested on: M14 melanoma
[28] = tested on: HL-60(TB) leukemia
[29] = tested on: RPMI-8226 leukemia
[30] = tested on: NCI/ADR-RES ovarian
[31] = tested on: SNB-19 CNS
[32] = tested on: SK-MEL-2 melanoma
[33] = tested on: SR leukemia
[34] = tested on: IGROV1 ovarian
[35] = tested on: HT29 colon
[36] = tested on: NCI-H460 lung
[37] = tested on: A498 renal
[38] = tested on: NCI-H522 lung
[39] = tested on: OVCAR-4 ovarian
[40] = tested on: MDA-MB-231 breast
[41] = tested on: OVCAR-8 ovarian
[42] = tested on: MCF7 breast
[43] = tested on: MDA-MB-435
[44] = tested on: HOP-62 NSCLC
[45] = tested on: SN12C renal
[46] = tested on: NCI-H226 lung
[47] = tested on: RXF 393 renal
[48] = tested on: TK-10 renal

Cc1ccc(C2CC3(c4ccccc4)ON=C(c4ccccc4)N3c3ccccc3S2)cc1 (stereo not given)
GI50 [1]: 38.9 µM
GI50 [2]: 38.5 µM
GI50 [3]: 20.6 µM
GI50 [4]: 8.08 µM

COc1ccc(-c2nn(-c3ccc(NC(=O)c4cc(Cl)cc(Cl)c4)cc3)cc2-c2ccncc2)cc1Cl
GI50 [5]: > 100 µM
TGI [5]: > 100 µM
GI50 [6]: 5.38 µM
TGI [6]: > 100 µM
GI50 [7]: > 100 µM
TGI [7]: > 100 µM
GI50 [8]: > 100 µM
TGI [8]: > 100 µM
GI50 [9]: 8.09 µM
TGI [9]: > 100 µM
GI50 [10]: 3.2 µM
TGI [10]: > 100 µM
GI50 [11]: 5.27 µM
TGI [11]: > 100 µM
GI50 [12]: 1770 nM
TGI [12]: > 100 µM
GI50 [13]: > 100 µM
TGI [13]: > 100 µM
GI50 [14]: > 100 µM
TGI [14]: > 100 µM
GI50 [15]: > 100 µM
TGI [15]: > 100 µM
GI50 [16]: 2000 nM
TGI [16]: > 100 µM
GI50 [17]: > 100 µM
TGI [17]: > 100 µM
GI50 [18]: 695 nM
TGI [18]: 5.49 µM
GI50 [19]: 3.04 µM
TGI [19]: > 100 µM
GI50 [20]: > 100 µM
TGI [20]: > 100 µM
GI50 [1]: 2.83 µM
TGI [1]: > 100 µM
GI50 [21]: 3.43 µM
TGI [21]: > 100 µM
GI50 [2]: 1.86 µM
TGI [2]: > 100 µM
GI50 [22]: 4.29 µM
TGI [22]: > 100 µM
GI50 [23]: > 100 µM
TGI [23]: > 100 µM
GI50 [24]: > 100 µM
TGI [24]: > 100 µM
GI50 [25]: > 100 µM
TGI [25]: > 100 µM
GI50 [26]: > 100 µM
TGI [26]: > 100 µM
GI50 [27]: 2400 nM
TGI [27]: 9.08 µM
GI50 [28]: 3.41 µM
TGI [28]: > 100 µM
GI50 [29]: 494 nM
TGI [29]: 3.26 µM
GI50 [30]: > 100 µM
TGI [30]: > 100 µM
GI50 [31]: > 100 µM
TGI [31]: > 100 µM
GI50 [32]: 2790 nM
TGI [32]: > 100 µM
GI50 [33]: 2720 nM
TGI [33]: > 100 µM
GI50 [3]: 1.84 µM
TGI [3]: > 100 µM
GI50 [34]: > 100 µM
TGI [34]: > 100 µM
GI50 [35]: 2260 nM
TGI [35]: > 100 µM
GI50 [36]: 6.08 µM
TGI [36]: > 100 µM
GI50 [37]: 3.04 µM
TGI [37]: > 100 µM
GI50 [38]: 5.11 µM
TGI [38]: > 100 µM
GI50 [4]: 7 µM
TGI [4]: > 100 µM
GI50 [39]: > 100 µM
TGI [39]: > 100 µM
GI50 [40]: 1390 nM
TGI [40]: 4.85 µM
GI50 [41]: > 100 µM
TGI [41]: > 100 µM
GI50 [42]: > 100 µM
TGI [42]: > 100 µM
GI50 [43]: > 100 µM
TGI [43]: > 100 µM
GI50 [44]: 8.12 µM
TGI [44]: > 100 µM
GI50 [45]: > 100 µM
TGI [45]: > 100 µM
GI50 [46]: > 100 µM
TGI [46]: > 100 µM
GI50 [47]: 362 nM
TGI [47]: 1230 nM
GI50 [48]: 6.18 µM
TGI [48]: > 100 µM
